What was measured:
[1] = target: T1, ATP-dependent translocase ABCB1 (Homo sapiens, UniProt P08183); test: TP_TRANSPORTER: drug resistance in KB-VIN10 cells; assay type: functional, cell-based
[2] = target: T1, ATP-dependent translocase ABCB1; test: TP_TRANSPORTER: drug resistance in KB-TAX50 cells; assay type: functional, cell-based

T1 sequence (P08183 whole entry): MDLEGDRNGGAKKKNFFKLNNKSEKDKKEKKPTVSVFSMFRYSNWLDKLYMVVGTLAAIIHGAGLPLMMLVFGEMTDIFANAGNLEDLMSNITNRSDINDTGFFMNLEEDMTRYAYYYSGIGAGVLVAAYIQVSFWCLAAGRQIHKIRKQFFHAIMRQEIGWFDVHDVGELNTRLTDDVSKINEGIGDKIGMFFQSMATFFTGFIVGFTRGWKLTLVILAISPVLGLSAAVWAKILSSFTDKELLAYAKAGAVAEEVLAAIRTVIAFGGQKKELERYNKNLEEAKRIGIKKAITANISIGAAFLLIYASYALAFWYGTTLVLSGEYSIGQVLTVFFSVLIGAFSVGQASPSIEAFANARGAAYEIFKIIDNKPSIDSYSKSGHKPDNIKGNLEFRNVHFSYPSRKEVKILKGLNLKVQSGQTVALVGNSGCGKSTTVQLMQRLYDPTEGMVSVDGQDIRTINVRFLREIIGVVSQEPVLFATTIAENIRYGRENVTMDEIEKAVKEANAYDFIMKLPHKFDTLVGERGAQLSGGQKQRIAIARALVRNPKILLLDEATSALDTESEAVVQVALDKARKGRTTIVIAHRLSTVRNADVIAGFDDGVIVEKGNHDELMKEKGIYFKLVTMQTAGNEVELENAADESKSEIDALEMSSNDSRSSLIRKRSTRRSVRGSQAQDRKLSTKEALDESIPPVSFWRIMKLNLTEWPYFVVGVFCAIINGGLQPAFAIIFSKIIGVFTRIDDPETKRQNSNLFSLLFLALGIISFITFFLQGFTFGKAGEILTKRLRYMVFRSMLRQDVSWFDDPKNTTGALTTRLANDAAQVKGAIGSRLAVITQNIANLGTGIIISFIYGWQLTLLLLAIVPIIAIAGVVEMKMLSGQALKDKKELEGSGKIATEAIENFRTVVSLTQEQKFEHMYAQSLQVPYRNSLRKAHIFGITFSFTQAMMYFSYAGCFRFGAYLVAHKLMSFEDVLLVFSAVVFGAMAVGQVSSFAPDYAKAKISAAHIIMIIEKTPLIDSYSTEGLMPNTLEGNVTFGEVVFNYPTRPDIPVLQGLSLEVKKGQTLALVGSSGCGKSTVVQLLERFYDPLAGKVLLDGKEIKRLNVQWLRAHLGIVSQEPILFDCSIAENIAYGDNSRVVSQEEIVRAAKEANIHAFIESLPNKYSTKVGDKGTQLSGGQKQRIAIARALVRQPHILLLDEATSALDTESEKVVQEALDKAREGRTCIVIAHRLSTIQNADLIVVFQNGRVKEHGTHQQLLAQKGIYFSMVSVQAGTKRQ

Row | SMILES | Activity [1] | Activity [2]
1 | CC[C@]1(O)C[C@H]2CN(CCc3c([nH]c4ccccc34)[C@@](C(=O)OC)(c3cc4c(cc3OC)N(C=O)[C@H]3[C@@](O)(C(=O)OC)[C@H](OC(C)=O)[C@]5(CC)C=CCN6CC[C@]43[C@@H]65)C2)C1 [VINCRISTINE] | substrate [+] | substrate [+]
2 | COc1cc2c(c(OC)c1OC)-c1ccc(OC)c(=O)cc1[C@@H](NC(C)=O)CC2 [COLCHICINE] | substrate [+] | substrate [+]
3 | COc1ccc2c(C(=O)c3cc(OC)c(OC)c(OC)c3)c[nH]c2c1 | is not a substrate [-] | is not a substrate [-]
4 | CC(=O)O[C@H]1C(=O)[C@@]2(C)[C@H]([C@H](OC(=O)c3ccccc3)[C@]3(O)C[C@H](OC(=O)[C@H](O)[C@@H](NC(=O)c4ccccc4)c4ccccc4)C(C)=C1C3(C)C)[C@]1(OC(C)=O)CO[C@@H]1C[C@@H]2O [PACLITAXEL] | substrate [+] | substrate [+]

Source: ChEMBL document CHEMBL2074333, “BPR0L075, a novel synthetic indole compound with antimitotic activity in human cancer cells, exerts effective antitumoral activity in vivo” (Cancer Res, 2004)
